A value given as a limit tells only on which side of the number the result lay.

This passage reports IC50 results from patent publication US11407771B2 (priority 2018, dated 2022).

The target of one test is T1, MAPK13 (Homo sapiens (Human), UniProt O15264).
T1 sequence (O15264 whole entry): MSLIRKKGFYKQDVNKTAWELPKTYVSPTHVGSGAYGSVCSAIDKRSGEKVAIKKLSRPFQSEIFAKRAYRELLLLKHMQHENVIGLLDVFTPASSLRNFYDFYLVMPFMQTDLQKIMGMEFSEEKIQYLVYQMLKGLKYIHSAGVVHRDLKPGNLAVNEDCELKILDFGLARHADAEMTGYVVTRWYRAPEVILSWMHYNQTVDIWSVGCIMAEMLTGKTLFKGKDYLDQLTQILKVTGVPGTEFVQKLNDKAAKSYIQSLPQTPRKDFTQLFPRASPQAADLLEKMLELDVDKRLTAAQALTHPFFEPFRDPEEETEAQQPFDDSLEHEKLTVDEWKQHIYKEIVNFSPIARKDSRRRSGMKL
Assay: not given
The following applies: read-out: MAPK13 IC50.
As to `CC(=O)Nc1cc(Oc2ccc(NC(=O)Nc3cc(C(C)(C)C)no3)c(F)c2)ccn1` [Compound 395, N-(4-{4-[3-(3-tert-Butyl-isoxazol-5-yl)-ureido]-3-fluoro-phenoxy}-pyridin-2-yl)-acetamide], the IC50 came to 11 nM.
Still for that read-out and setting: next, `Cc1ccc(-n2nc(C(C)(C)C)cc2NC(=O)Nc2ncc(CCc3ccnc(NC(=O)C4CC4)c3)s2)cc1` [Compound 331, Cyclopropanecarboxylic acid [4-(2-{2-[3-(5-tert-butyl-2-p-tolyl-2H-pyrazol-3-yl)-ureido]-thiazol-5-yl}ethyl)-pyridin-2-yl]-amide]: 11 nM.

Staying with this test, now noted: read-out: MAPK13 inhibition.
As for `CC(=O)Nc1cc(CCc2cnc(NC(=O)Nc3cc([Si](C)(C)C)ccc3F)s2)ccn1` [Compound 400, N-[4-(2-{2-[3-(2-Fluoro-5-trimethylsilanyl-phenyl)-ureido]-thiazol-5-yl}-ethyl)-pyridin-2-yl]-acetamide], the IC50 is less than 250 nM.
As for `CC(C)(C)c1cc(NC(=O)Nc2ncc(CCc3ccnc(NC(=O)C4CC4)c3)s2)n(-c2ccc(Cl)cc2)n1` [Compound 390, N-[4-[2-[2-[[5-tert-butyl-2-(4-chlorophenyl)pyrazol-3-yl]carbamoylamino]thiazol-5-yl]ethyl]-2-pyridyl]cyclopropanecarboxamide], the IC50 was less than 250 nM.
Same read-out and setting: the value for `CC(C)(C)c1cc(NC(=O)Nc2ccc(Oc3ccncc3)cc2F)n(-c2cccc(F)c2)n1` [Compound 306, 1-[5-tert-butyl-2-(3-fluorophenyl)pyrazol-3-yl]-3-[2-fluoro-4-(4-pyridyloxy)phenyl]urea] was less than 250 nM; that for `O=C(CO)Nc1cc(Oc2ccc(NC(=O)Nc3cc(C4CC4)ccc3F)c(F)c2)ccn1` [Compound 424, N-(4-{4-[3-(5-Cyclopropyl-2-fluoro-phenyl)-ureido]-3-fluoro-phenoxy}-pyridin-2-yl)-2-hydroxy-acetamide] was less than 250 nM; that for `CC(=O)Nc1cc(CCc2ccc(NC(=O)Nc3cc(C(C)(C)C)on3)c(F)c2)ccn1` [Compound 358, N-[4-(2-{4-[3-(5-tert-Butyl-isoxazol-3-yl)-ureido]-3-fluoro-phenyl}-ethyl)-pyridin-2-yl]-acetamide] was greater than 1000 nM.
The same measure, in the same setting: next, `CC(C)C(=O)Nc1cc(CCc2cnc(NC(=O)Nc3cc(C(C)(C)C)nn3C)s2)ccn1` [Compound 349, N-[4-(2-{2-[3-(5-tert-Butyl-2-methyl-2H-pyrazol-3-yl)-ureido]-thiazol-5-yl}-ethyl)-pyridin-2-yl]-isobutyramide]: less than 250 nM; `CC(C)(C)c1cc(NC(=O)Nc2ccc(CCc3ccnc(NC(=O)C4CC4)c3)cc2F)on1` [Compound 374, Cycloproprinecarboxylic acid [4-(2-{4-[3-(3-tert-butyl-isoxazol-5-yl)-ureido]-3-fluoro-phenyl}-ethyl)-pyridin-2-yl]-amide]: greater than 1000 nM.
Same read-out and setting: next, `Cc1ccc(-n2nc(C(C)(C)C)cc2NC(=O)Nc2ncc(CCc3ccnc(NC(=O)N4CCCC4)c3)s2)cc1` [Compound 337, Pyrrolidine-1-carboxylic acid [4-(2-{2-[3-(5-tert-butyl-2-p-tolyl-2H-pyrazol-3-yl)-ureido]-thiazol-5-yl}-ethyl)-pyridin-2-yl]-amide]: less than 250 nM.
Regarding `CC(C)(C)c1cc(NC(=O)Nc2ccc(Oc3ccncc3)cc2F)n(-c2ccc(F)cc2)n1` [Compound 303, 1-[5-tert-Butyl-2-(4-fluoro-phenyl)-2H-pyrazol-3-yl]-3-[2-fluoro-4-(pyridin-4-yloxy)-phenyl]-urea], the IC50 is less than 250 nM.
The same measure, in the same setting: next, `Cc1ccc(-n2nc(C(C)(C)C)cc2NC(=O)Nc2ncc(CCc3ccnc(NC(=O)C4CCOCC4)c3)s2)cc1` [Compound 288, Tetrahydro-pyran-4-carboxylic acid [4-(2-{2-[3-(5-tert-butyl-2-p-tolyl-2H-1-pyrazol-3-yl)-ureido]-thiazol-5-yl}-ethyl)-pyridin-2-yl]-amide]: less than 250 nM.
The same measure, in the same setting: next, `CC(C)(C)c1cccc(NC(=O)Nc2ccc(CCc3ccnc(NC(=O)C4CC4)c3)cc2F)c1` [Compound 376, Cyclopropancearboxylic acid [4-(2-{4-[3-(3-tert-butyl-phenyl)-ureido]-3-fluoro-phenyl}-ethyl)-pyridin-2-yl]-amide]: greater than 1000 nM; `CC(=O)Nc1cc(Oc2ccc(NC(=O)Nc3cc(C(C)(C)C)no3)c(F)c2)ccn1` [Compound 395, N-(4-{4-[3-(3-tert-Butyl-isoxazol-5-yl)-ureido]-3-fluoro-phenoxy}-pyridin-2-yl)-acetamide]: less than 250 nM; `CC(C)(C)c1cc(NC(=O)Nc2ccc(CCc3ccnc(NC(=O)C4CC4)c3)cc2F)no1` [Compound 378, Cyclopropanecarboxylic acid [4-(2-{4-[3-(5-tert-butyl-isoxazol-3-yl)-ureido]-3-fluoro-phenyl}-ethyl)-pyridin-2-yl]-amide]: greater than 1000 nM.
The same measure, in the same setting: next, `CC(C)n1nc(C(C)(C)C)cc1NC(=O)Nc1ccc(CCc2ccnc(NC(=O)C3CC3)c2)cc1F` [Compound 375, Cyclopropanecarboxylic acid [4-(2-{4-[3-(5-tert-butyl-2-isopropyl-2H-pyrazol-3-yl)-ureido]-3-fluoro-phenyl}-ethyl)-pyridin-2-yl]-amide]: greater than 1000 nM.
`CC(C)(C)c1cc(NC(=O)Nc2ccc(CCc3ccnc(NC(=O)C4CC4)c3)cc2F)n(CC2CC2)n1` [Compound 372, Cyclopropanecarboxylic acid [4-(2-{4-[3-(5-tert-butyl-2-cyclopropylmethyl-2H-pyrazol-3-yl)-ureido]-3-fluoro-phenyl}-ethyl)-pyridin-2-yl]-amide]: the IC50 is greater than 1000 nM.
Same read-out and setting: the value for `CC(C)(C)c1ccc(Cl)c(NC(=O)Nc2ncc(CCc3ccncc3)s2)c1` [Compound 388, 1-(5-tert-Butyl-2-chloro-phenyl)-3-[5-(2-pyridin-4-yl-thiazol)-thiazol-2-yl]-urea] was greater than 1000 nM; that for `CC(=O)Nc1cc(CCc2ccc(NC(=O)Nc3cccc(C(C)(C)C)c3)c(F)c2)ccn1` [Compound 377, N-[4-(2-{4-[3-(3-tert-Butyl-phenyl)-ureido]-3-fluoro-phenyl}-ethyl)-pyridin-2-yl]-acetamide] was greater than 1000 nM.
The same measure, in the same setting: next, `CC(C)(C)c1cc(NC(=O)Nc2ccc(Oc3ccnc(N)c3)cc2F)n(-c2cccc(F)c2)n1` [Compound 304, 1-[4-(2-Amino-pyridin-4-yloxy)-2-fluoro-phenyl]-3-[5-tert-butyl-2-(3-fluoro-phenyl)-2H-pyrazol-3-yl]-urea]: less than 250 nM; `CC(C)(C)c1ccc(Cl)c(NC(=O)Nc2ccc(Oc3ccnc(N)c3)cc2F)c1` [Compound 428, 1-[4-(2-Amino-pyridin-4-yloxy)-2-fluoro-phenyl]-3-(5-tert-butyl-2-chloro-phenyl)-urea]: greater than 1000 nM; `CC(C)n1nc(C(C)(C)C)cc1NC(=O)Nc1ncc(CCc2ccncc2)s1` [Compound 389, 1-(5-tert-Butyl-2-isopropyl-2H-pyrazol-3-yl)-3-[5-(2-pyridin-4-yl-ethyl)-thiazol-2-yl]-urea]: greater than 1000 nM.
Still for that read-out and setting: next, `Cc1ccc(-n2nc(C(C)(C)C)cc2NC(=O)Nc2ncc(CCc3ccnc(NC(=O)C4CC4)c3)s2)cc1` [Compound 331, Cyclopropanecarboxylic acid [4-(2-{2-[3-(5-tert-butyl-2-p-tolyl-2H-pyrazol-3-yl)-ureido]-thiazol-5-yl}ethyl)-pyridin-2-yl]-amide]: less than 250 nM; `CCNC(=O)Nc1cc(CCc2cnc(NC(=O)Nc3cc(C(C)(C)C)nn3-c3ccc(C)cc3)s2)ccn1` [Compound 284, 1-[4-(2-{2-[3-(5-tert-Butyl-2-p-tolyl-2H-pyrazol-3-yl)-ureido]-thiazol-5-yl}-ethyl)-pyridin-2-yl]-3-ethyl-urea]: less than 250 nM.
On to `COCCC(=O)Nc1cc(Oc2ccc(NC(=O)Nc3cc(C4CC4)ccc3F)c(F)c2)ccn1` [Compound 425, N-(4-{4-[3-(5-Cyclopropyl-2-fluoro-phenyl)-ureido]-3-fluoro-phenoxy}-pyridin-2-yl)-3 methoxypropionamide], for which the IC50 is less than 250 nM.
As for `CC(=O)Nc1cc(CCc2ccc(NC(=O)Nc3cc(C(C)(C)C)nn3C)c(F)c2)ccn1` [Compound 361, N-[4-(2-{4-[3-(5-tert-Butyl-2-methyl-2H-pyrazol-3-yl)-ureido]-3-fluoro-phenyl}-ethyl)-pyridin-2-yl]-acetamide], the IC50 was greater than 1000 nM.
In the case of `CC(=O)Nc1cc(CCc2cnc(NC(=O)Nc3cc(C(C)(C)C)on3)s2)ccn1` [Compound 366, N-[4-(2-{2-[3-(5-tert-Butyl-isoxazol-3-yl)-ureido]-thiazol-5-yl}-ethyl)-pyridin-2-yl]-acetamide], the IC50 was less than 250 nM.
With `CC(C)(C)c1cc(NC(=O)Nc2ccc(Oc3ccncc3)cc2F)n(CC2CC2)n1` [Compound 310, 1-(5-tert-Butyl-2-cyclopropylmethyl-2H-pyrazol-yl)-3-[2-fluoro-4-(pyridin-4-yloxy)-phenyl]-urea], the IC50 was less than 250 nM.
The same measure, in the same setting: next, `Cc1ccc(-n2nc(C3(C)CSC3)cc2NC(=O)Nc2ncc(CCc3ccncc3)s2)cc1` [Compound 273, 1-[5-(3-Methyl-thietan-3-yl)-2-p-tolyl-2H-pyrazol-3-yl]-3-[5-(2-pyridin-4-yl-ethyl)-thiazol-2-yl]-urea]: less than 250 nM; `CC(=O)Nc1cc(CCc2cnc(NC(=O)Nc3cc(C(C)(C)C)no3)s2)ccn1` [Compound 382]: less than 250 nM.
On the same count and under the same terms, next, `CC(=O)Nc1cc(CCc2ccc(NC(=O)Nc3cc(C(C)(C)C)no3)c(F)c2)ccn1` [Compound 359, N-[4-(2-{4-[3-(3-tert-Butyl-isoxazol-5-yl)-ureido]-3-fluoro-phenyl}-ethyl)-pyridin-2-yl]-acetamide]: greater than 1000 nM; `CC(C)(C)c1cc(NC(=O)Nc2ncc(CCc3ccnc(NC(=O)C4CCC4)c3)s2)n(CC2CC2)n1` [Compound 339, Cyclobutanecarboxylic acid [4-(2-{2-[3-(5-tert-butyl-2-cyclopropylmethyl-2H-pyrazol-3-yl)-ureido]-thiazol-5-yl}-ethyl)-pyridin-2-yl]-airdde]: less than 250 nM.

Another test concerns the target T1, MAPK13. Nature of the test: biochemical.
Settings: not given
`CC(=O)Nc1cc(CCc2ccc(NC(=O)Nc3cc(C(C)(C)C)nn3-c3ccc(F)cc3)c(F)c2)ccn1` [Compound 379, N-{4-[2-(4-{3-[5-tert-Butyl-2-(4-fluoro-phenyl)-2H-pyrazol-3-yl]-ureido}-3-fluoro-phenyl)-ethyl]-pyridin-2-yl}-acetamide]: the IC50 was 250 to 1000 nM.
Same read-out and setting: next, `CC(=O)Nc1cc(COc2ccc(NC(=O)Nc3cc(C(C)(C)C)ccc3Cl)c(F)c2)ccn1` [Compound 414, N-(4-{4-[3-(5-tert-Butyl-2-chloro-phenyl)-ureido]-3-fluoro-phenoxymethyl}-pyridin-2-yl)-acetamide]: 250 to 1000 nM.
